From US10695330B2, “Methods of treatment” (Global Blood Therapeutics, Inc., priority 2015, dated 2020)

Assays:
Hb [1] = molecular target: T1, Hb (Mus musculus, UniProt P01942); test: Bleomycin mouse model: PK/PD (blood and plasma concentrations, Hb occupancy, hemoximetry); format: in vivo; settings: bleomycin treated mice; for calculated Hb occupancy: 4 hours after last dose
T1 construct: from tissue; host or cells: whole blood (red blood cells) of dosed C57BL / C57BL/6J mice
Description: Compound 1 (formulated in dimethylacetamide: polyethylene glycol 400 (PEG400): 40% cavitron at a 1:5:4 ratio) was administered at either low dose (first day 50 mg/kg followed by 40 mg/kg daily) or high dose (first day 150 mg/kg followed by 85 mg/kg daily) via oral gavage to bleomycin treated mice once daily from day 8 to day 15. Animals in group 1 were administered vehicle via oral gavage. The dosing volume was 200 μL. The study animals were sacrificed on day 15 at 4 hours post final dose.
Samples for hemoximetry and pharmacokinetics (PK) were taken 4 hours following the last dose of the dosing regimen. BAL fluid was collected from the lungs of the animals by lavaging the lung with 1 ml Hanks balanced salt media (HBSS). Lungs were harvested from each animal and weighed. They were then inflated by ˜0.5 mL of 10% NBF and fixed in a formalin container for subsequent histopathological analysis.
Compound 1 blood and plasma concentrations were determined by LC-MS 4 hours after the last dose. Both standard and QC blood samples were pre-incubated at 37° C. for 1 hr. After incubation, all standard and QC samples were diluted with 2-fold volume of water to match with the condition of samples. Plasma standard and QC were proceeding without pre-incubation. […] The peak area of m/z 341->203 product ion (Compound 1) was measured against that of the m/z 345->159 product ion 2-hydroxy-6-((2-(1-(propan-2-yl-d7)-1H-pyrazol-5-yl)pyridin-3-yl)methoxy)benzaldehyde in positive ion mode. […]
Hemoglobin occupancy by Compound 1 was calculated by dividing the concentration of Compound 1 in RBCs by the Hb concentration in RBCs (5 mM). RBC was calculated from whole blood and plasma concentration data using the following equation: […]
Hemoximetry measurements (PD analysis) were conducted in a Hemox Analyzer (TCS Scientific Corporation, New Hope, Pa.). […] The absorbance at wavelengths that correspond to the isosbestic point (570 nm) and deoxy Hb (560 nm) was recorded as a function of the sample O2 tension (pO2). […]

activated neutrophils = test: Oxidative burst in activated neutrophils; format: cell-based; settings: in vitro
From the text: (§1) Reactive oxygen species (ROS) released from activated white blood cells cause lung injury as well as fibrotic changes in patients with IPF. […] Thus, the compounds described herein could also provide a method to inhibit the adverse effects of inflammation in a patient. Reduction in systemic pro-inflammatory cytokines (tumor necrosis alpha and interleukin-6) also has the potential to exert a broad anti-inflammatory effect which would supplement the beneficial effect of alleviation of hypoxemia via increased hemoglobin-O2 affinity.

Hb [2] = molecular target: T1, Hb; test: LPS-induced acute lung injury mouse model: PK/PD (Hb occupancy, hemoximetry); format: in vivo; settings: LPS-induced ALI mice
Description: Adult, 8-10-week-old male C57BL/6J mice (Jackson Laboratory, Bar Harbor, Me.), were anesthetized with isoflurane, injected with 100 μg LPS (Sigma, St. Louis, Mo.) in 100 μL PBS by direct intratracheal injection. After 24 hours, mice were given Compound 1 (70 or 140 mg/kg formulated in dimethylacetamide, polyethylene glycol 400 (PEG400) and 40% cavitron in a ratio of 1:5:4, respectively) or vehicle only (5 μL/g) by oral gavage 2 hours prior to placement in a hypoxia chamber. Mice were exposed to either 10 or 5% O2 for 4 hours. Oxygen saturation (SaO2) was measured with a pulse oximeter (STARR Life Sciences, Oakmont, Pa.) at baseline and hourly during hypoxic exposure. During hypoxic exposure, mice were monitored continuously and a moribund check was done every 15 minutes. Time to death was assessed by time to moribund status. Mice were determined to be moribund if they could not right themselves when placed in a supine position.
Blood was collected by cardiac puncture in the hypoxic chamber. Blood gases were measured using the i-STAT portable analyzer within the hypoxic environment (Abaxis, Union City, Calif.). Remaining blood samples were used for hemoximetry and pharmacokinetic analysis. For sample collection, mice were euthanized with pentobarbital overdose. A bronchoaleveolar lavage (BAL) was performed with 900 uL Saline. Blood was collected by retro orbital puncture, and then spun to collect plasma. Lungs were removed and flash frozen. All samples were stored at −80° C. until further study. BAL inflammatory cell counts and differentials were determined manually after staining cytospins with DiffQuik. BAL protein was measured using a Pierce BCA Protein Assay Kit (Thermo Scientific, Waltham, Mass.).
Hemoximetry was used to determine the PD effect of Compound 1 in whole blood from dosed mice as described above. Representative oxygen equilibrium curves (OECs) of whole blood obtained from mice dosed with Compound 1 (blue and red lines) or vehicle only (black line) are shown in FIG. 3A.

macrophages = test: Production of TNF-α and IL-6 by macrophages; format: cell-based; settings: in vitro
From the text: as §1

T1 sequence (P01942 2-142 limits assumed): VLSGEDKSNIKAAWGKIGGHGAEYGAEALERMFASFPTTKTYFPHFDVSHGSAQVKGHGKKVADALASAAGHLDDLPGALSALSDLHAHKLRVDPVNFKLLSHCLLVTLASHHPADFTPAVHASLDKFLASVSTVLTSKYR
T1 sequence (P02088 2-147 partner limits assumed): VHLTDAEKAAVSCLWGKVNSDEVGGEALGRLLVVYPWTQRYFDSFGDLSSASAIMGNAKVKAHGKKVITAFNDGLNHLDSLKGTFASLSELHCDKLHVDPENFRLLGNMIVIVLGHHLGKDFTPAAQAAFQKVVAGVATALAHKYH

O=Cc1c(O)cccc1OC[C@@H]1CCCCN1C(=O)c1cccnc1 [Compound 1, (S)-2-hydroxy-6-((1-nicotinoylpiperidin-2-yl)methoxy)benzaldehyde]
calculated Hb occupancy (Hb [1]; high dose regimen (150 then 85 mg/kg daily)): 36.7%
shift in the OEC (Hb-oxygen binding affinity) (Hb [1]; low and high dose): significant left shift in the OEC in a dose-response manner
calculated Hb occupancy (Hb [1]; low dose regimen (50 then 40 mg/kg daily)): 18.0%
anti-oxidative activity (oxidative burst) (activated neutrophils): displayed anti-oxidative
Hb occupancy (Hb [2]; 70 mg/kg oral): ~19%
Hb occupancy (Hb [2]; 140 mg/kg oral): ~27%
Hb O2 affinity (left-shift in the OEC) in whole blood from dosed mice (Hb [2]; 70 or 140 mg/kg oral, vs vehicle): dose-dependent increase in Hb O2 affinity relative to control
anti-inflammatory activity (TNF-α and IL-6 production) (macrophages): anti-inflammatory activity
